Measurements taken from patent US9815846B2 (Merck Sharp & Dohme Corp., priority 2014, dated 2017).

target: human TrkA receptor (Homo sapiens (Human), UniProt P04629); test: DiscoverX PathHunter TrkA functional assay (NGF-stimulated U2OS cells); assay type: cell-based; settings: U2OS cells expressing human TrkA-PK, Shc1-EA and p75NTR; compound 1 h, then NGF at ~80% of maximal response for 3 h; luminescence
Sequence (P04629 33-796): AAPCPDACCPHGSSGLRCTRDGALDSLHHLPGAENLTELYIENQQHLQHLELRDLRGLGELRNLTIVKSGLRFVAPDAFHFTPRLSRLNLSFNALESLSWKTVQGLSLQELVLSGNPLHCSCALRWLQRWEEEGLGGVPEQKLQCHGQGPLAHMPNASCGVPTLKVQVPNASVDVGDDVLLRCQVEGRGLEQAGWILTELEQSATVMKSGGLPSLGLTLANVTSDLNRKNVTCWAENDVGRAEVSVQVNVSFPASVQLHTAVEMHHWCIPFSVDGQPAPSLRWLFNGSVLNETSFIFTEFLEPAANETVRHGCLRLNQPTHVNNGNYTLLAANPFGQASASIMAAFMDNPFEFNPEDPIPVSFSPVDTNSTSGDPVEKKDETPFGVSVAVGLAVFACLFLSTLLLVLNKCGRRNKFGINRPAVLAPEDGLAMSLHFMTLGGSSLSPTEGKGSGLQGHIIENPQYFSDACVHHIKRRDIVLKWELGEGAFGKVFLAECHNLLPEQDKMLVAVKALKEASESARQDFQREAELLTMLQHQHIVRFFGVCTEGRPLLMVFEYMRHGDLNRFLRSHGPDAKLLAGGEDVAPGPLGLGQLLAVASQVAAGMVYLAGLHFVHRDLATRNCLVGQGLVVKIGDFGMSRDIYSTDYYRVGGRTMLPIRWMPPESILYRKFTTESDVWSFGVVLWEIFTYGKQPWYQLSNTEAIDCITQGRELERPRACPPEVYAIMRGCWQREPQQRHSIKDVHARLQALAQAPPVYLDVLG

Row | SMILES | IC50
1 | Cn1ccc(-c2cc(C(=O)Nc3cnc(CN4CCNC4=O)nc3-c3ccccc3)c(F)cc2C(F)(F)F)n1 [Example 77, 2-fluoro-5-(1-methyl-1H-pyrazol-3-yl)-N-(2-((2-oxoimidazolidin-1-yl)methyl)-4-phenylpyrimidin-5-yl)-4-(trifluoromethyl)benzamide] | 1 nM
2 | NC(=O)c1ccnc(-c2cnc(-c3ccccc3)c(NC(=O)c3cc(-c4ncccn4)c(C(F)(F)F)cc3F)c2)n1 [Example 173, 2-(5-(2-fluoro-5-(pyrimidin-2-yl)-4-(trifluoromethyl)benzamido)-6-phenylpyridin-3-yl)pyrimidine-4-carboxamide] | 4.9 nM
3 | CNC(=O)Cc1ncc(NC(=O)c2ccc(C(F)(F)F)c(-c3ccn(C)n3)c2)c(-c2ccccc2)n1 [Example 103, 3-(1-methyl-1H-pyrazol-3-yl)-N-(2-(2-(methylamino)-2-oxoethyl)-4-phenylpyrimidin-5-yl)-4-(trifluoromethyl)benzamide] | 4.1 nM
4 | C[C@@H](N)C(=O)NCc1ncc(NC(=O)c2cc(-c3ccn(C)n3)c(C(F)(F)F)cc2F)c(-c2ccccc2)n1 [Example 73, (R)-N-(2-((2-aminopropanamido)methyl)-4-phenylpyrimidin-5-yl)-2-fluoro-5-(1-methyl-1H-pyrazol-3-yl)-4-(trifluoromethyl)benzamide] | 1 nM
5 | Cn1ccc(-c2cc(C(=O)Nc3cnc(CN4C(=O)CNC4=O)nc3-c3ccccc3)c(F)cc2C(F)(F)F)n1 [Example 96, N-(2-((2,5-dioxoimidazolidin-1-yl)methyl)-4-phenylpyrimidin-5-yl)-2-fluoro-5-(1-methyl-1H-pyrazol-3-yl)-4-(trifluoromethyl)benzamide] | 0.083 nM
6 | Cn1ccc(-c2cc(C(=O)Nc3ccc(CN4C(=O)CNC4=O)nc3-c3ccccc3)c(F)cc2C(F)(F)F)n1 [Example 98, N-(6-((2,5-dioxoimidazolidin-1-yl)methyl)-2-phenylpyridin-3-yl)-2-fluoro-5-(1-methyl-1H-pyrazol-3-yl)-4-(trifluoromethyl)benzamide] | 0.22 nM
7 | Cn1ccc(-c2cc(C(=O)Nc3ncc(CN4CCOC4=O)nc3-c3ccccc3)c(F)cc2C(F)(F)F)n1 [Example 214, 2-Fluoro-5-(1-methyl-1H-pyrazol-3-yl)-N-(5-((2-oxooxazolidin-3-yl)methyl)-3-phenylpyrazin-2-yl)-4-(trifluoromethyl)benzamide] | 4.6 nM
8 | Cn1ccc(-c2cc(C(=O)Nc3cnc(C4CCNC4=O)nc3-c3ccccc3)c(F)cc2C(F)(F)F)n1 (single isomer, unassigned) [Example 197, (R or S)-2-Fluoro-5-(1-methyl-1H-pyrazol-3-yl)-N-(2-(2-oxopyrrolidin-3-yl)-4-phenylpyrimidin-5-yl)-4-(trifluoromethyl)benzamide] | 3.7 nM
9 | CC(=O)Nc1cccc(-c2nc(C)ncc2NC(=O)c2cc(-c3ccn(C)n3)c(C(F)(F)F)cc2F)c1 [Example 133, N-(4-(3-acetamidophenyl)-2-methylpyrimidin-5-yl)-2-fluoro-5-(1-methyl-1H-pyrazol-3-yl)-4-(trifluoromethyl)benzamide] | 4.6 nM
10 | O=C(Nc1cc2c(nc1-c1ccccc1)CN(C(=O)CO)C2)c1cc(-c2ncccn2)c(C(F)(F)F)cc1F [Example 162, 2-fluoro-N-(6-(2-hydroxyacetyl)-2-phenyl-6,7-dihydro-5H-pyrrolo[3,4-b]pyridin-3-yl)-5-(pyrimidin-2-yl)-4-(trifluoromethyl)benzamide] | 180 nM
11 | Cc1ncc(NC(=O)c2cc(C3CCC(C)O3)c(C(F)(F)F)cc2F)c(-c2ccccc2)n1 (stereo not drawn) [Example 33, 2-fluoro-N-(2-methyl-4-phenylpyrimidin-5-yl)-5-(5-methyltetrahydrofuran-2-yl)-4-(trifluoromethyl)benzamide] | 56 nM
12 | CC(=O)NCc1ncc(NC(=O)c2cc(-c3cc[nH]n3)c(C(F)(F)F)cc2F)c(-c2ccccc2)n1 [Example 54, N-(2-(acetamidomethyl)-4-phenylpyrimidin-5-yl)-2-fluoro-5-(1H-pyrazol-3-yl)-4-(trifluoromethyl)benzamide] | 9.3 nM
13 | Cn1ccc(-c2cc(C(=O)Nc3cc4c(nc3-c3ccccc3)CCN(CC(=O)O)C4)ccc2C(F)(F)F)n1 [Example 157, 2-(3-(3-(1-methyl-1H-pyrazol-3-yl)-4-(trifluoromethyl)benzamido)-2-phenyl-7,8-dihydro-1,6-naphthyridin-6(5H)-yl)acetic acid] | 23 nM
14 | Cn1ccc(-c2cc(C(=O)Nc3cnc(Cc4nnnn4C)nc3-c3ccccc3)c(F)cc2C(F)(F)F)n1 [Example 179, 2-Fluoro-5-(1-methyl-1H-pyrazol-3-yl)-N-(2-((1-methyl-1H-tetrazol-5-yl)methyl)-4-phenylpyrimidin-5-yl)-4-(trifluoromethyl)benzamide] | 1 nM
15 | Cc1ncc(NC(=O)c2ccc(C(F)(F)F)c(-c3ccn(C)n3)c2)c(-c2ccc(F)cc2)n1 [Example 31, N-[4-(4-fluorophenyl)-2-methylpyrimidin-5-yl]-3-(1-methyl-1H-pyrazol-3-yl)-4-(trifluoromethyl)benzamide] | 5.5 nM
16 | CCNC(=O)Cc1ncc(NC(=O)c2cc(-c3ccn(C)n3)c(C(F)(F)F)cc2F)c(-c2ccccc2)n1 [Example 105, N-(2-(2-(ethylamino)-2-oxoethyl)-4-phenylpyrimidin-5-yl)-2-fluoro-5-(1-methyl-1H-pyrazol-3-yl)-4-(trifluoromethyl)benzamide] | 0.53 nM
17 | O=C(Nc1cnc(CO)nc1-c1ccccc1)c1ccc(C(F)(F)F)c(-c2cc[nH]n2)c1 [Example 36, N-(2-(hydroxymethyl)-4-phenylpyrimidin-5-yl)-3-(1H-pyrazol-3-yl)-4-(trifluoromethyl)benzamide] | 24 nM
18 | Cn1ccc(-c2cc(C(=O)Nc3ncc(CNC(=O)CO)nc3-c3ccccc3)c(F)cc2C(F)(F)F)n1 [Example 65, 2-fluoro-N-(5-((2-hydroxyacetamido)methyl)-3-phenylpyrazin-2-yl)-5-(1-methyl-1H-pyrazol-3-yl)-4-(trifluoromethyl)benzamide] | 3.3 nM
19 | Cn1ccc(-c2cc(C(=O)Nc3ccc(CN4CC5(COC5)C4)nc3-c3ccccc3)c(F)cc2C(F)(F)F)n1 [Example 183, N-(6-((2-oxa-6-azaspiro[3.3]heptan-6-yl)methyl)-2-phenylpyridin-3-yl)-2-fluoro-5-(1-methyl-1H-pyrazol-3-yl)-4-(trifluoromethyl)benzamide] | 7 nM
20 | Cc1cnn(-c2ccc(C(N)=O)cc2NC(=O)c2ccc(C(F)(F)F)c(-c3ccn(C)n3)c2)c1 [Example 86, N-(5-carbamoyl-2-(4-methyl-1H-pyrazol-1-yl)phenyl)-3-(1-methyl-1H-pyrazol-3-yl)-4-(trifluoromethyl)benzamide] | 19 nM
21 | NC(=O)c1ccc(-c2cnc(-c3ccccc3)c(NC(=O)c3cc(-c4cc[nH]n4)c(C(F)(F)F)cc3F)c2)cc1 [Example 165, N-(5-(4-carbamoylphenyl)-2-phenylpyridin-3-yl)-2-fluoro-5-(1H-pyrazol-3-yl)-4-(trifluoromethyl)benzamide] | 2.3 nM
22 | Cn1ccc(-c2cc(C(=O)Nc3cnc(Cc4nnc[nH]4)nc3-c3ccccc3)c(F)cc2C(F)(F)F)n1 [Example 129, N-(2-((4H-1,2,4-Triazol-3-yl)methyl)-4-phenylpyrimidin-5-yl)-2-fluoro-5-(1-methyl-1H-pyrazol-3-yl)-4-(trifluoromethyl)benzamide] | 0.25 nM
23 | Cn1ccc(-c2cc(C(=O)Nc3cc4c(nc3-c3ccccc3)CCN(CCO)C4)ccc2C(F)(F)F)n1 [Example 158, N-(6-(2-hydroxyethyl)-2-phenyl-5,6,7,8-tetrahydro-1,6-naphthyridin-3-yl)-3-(1-methyl-1H-pyrazol-3-yl)-4-(trifluoromethyl)benzamide] | 7.5 nM
24 | O=C(Nc1cc2c(nc1-c1ccccc1)CCNC2=O)c1cc(-c2ncccn2)c(C(F)(F)F)cc1F [Example 139, 2-Fluoro-N-(5-oxo-2-phenyl-5,6,7,8-tetrahydro-1,6-naphthyridin-3-yl)-5-(pyrimidin-2-yl)-4-(trifluoromethyl)benzamide] | 1.4 nM
25 | Cn1ccc(-c2cc(C(=O)Nc3cnc(COC(N)=O)nc3-c3ccccc3)c(F)cc2C(F)(F)F)n1 [Example 80, (5-(2-Fluoro-5-(1-methyl-1H-pyrazol-3-yl)-4-(trifluoromethyl)benzamido)-4-phenylpyrimidin-2-yl)methyl carbamate] | 0.49 nM
26 | Cn1ccc(-c2cc(C(=O)Nc3cc(CC(N)=O)cnc3-c3ccccc3)c(F)cc2C(F)(F)F)n1 [Example 202, N-(5-(2-Amino-2-oxoethyl)-2-phenylpyridin-3-yl)-2-fluoro-5-(1-methyl-1H-pyrazol-3-yl)-4-(trifluoromethyl)benzamide] | 3.7 nM
27 | Cn1ccc(-c2cc(C(=O)Nc3cc4c(nc3-c3ccccc3)CN(C(N)=O)CC4)c(F)cc2C(F)(F)F)n1 [Example 144, 3-(2-Fluoro-5-(1-methyl-1H-pyrazol-3-yl)-4-(trifluoromethyl)benzamido)-2-phenyl-5,6-dihydro-1,7-naphthyridine-7(8H)-carboxamide] | 0.26 nM
28 | Cn1ccc(-c2cc(C(=O)Nc3cnc(CC(=O)N[C@H]4C[C@@H](O)C4)nc3-c3ccccc3)c(F)cc2C(F)(F)F)n1 [Example 109, 2-fluoro-N-(2-(2-(((1s,3s)-3-hydroxycyclobutyl)amino)-2-oxoethyl)-4-phenylpyrimidin-5-yl)-5-(1-methyl-1H-pyrazol-3-yl)-4-(trifluoromethyl)benzamide] | 2.6 nM
29 | CC(=O)N1CC(c2ccc(NC(=O)c3cc(-c4ccn(C)n4)c(C(F)(F)F)cc3F)c(-c3ccccc3)n2)C1 [Example 208, N-(6-(1-acetylazetidin-3-yl)-2-phenylpyridin-3-yl)-2-fluoro-5-(1-methyl-1H-pyrazol-3-yl)-4-(trifluoromethyl)benzamide] | 3 nM
30 | Cn1ccc(-c2cc(C(=O)Nc3cnc(C4NC(=O)NC4=O)nc3-c3ccccc3)c(F)cc2C(F)(F)F)n1 (stereo not drawn) [Example 131, N-(2-(2,5-Dioxoimidazolidin-4-yl)-4-phenylpyrimidin-5-yl)-2-fluoro-5-(1-methyl-1H-pyrazol-3-yl)-4-(trifluoromethyl)benzamide] | 4.4 nM
